We go through four molecules from patent US5981489A, “Non-aqueous protic peptide formulations” (Alza Corporation, priority 1997, dated 1999).

Type in all cases: physicochemical
The nature of data set [1]: Gelation of non-aqueous protic solvent formulations on adding polar aprotic solvent. The source says: Thus, these solvents have an anti-gellant effect.
A short description of data set [2]: Stability of goserelin formulations, one month at 37° C., RP-HPLC. The note with it: for % CONCENTRATION: method called unreliable. Here is the method:
(§1) Stability samples were analyzed using RP-HPLC. The area under the curve for the leuprolide peak divided by the sum of the areas under the curve of all peaks gave % purity. [It should be noted that the data for % concentration presented with the % purity data (Examples 6, 8, 9 and 10) are inconclusive. The analysis methods used to determine % concentration in these experiments were unreliable.]
Formulations of 40-45% (w/w) goserelin in either PEG 600 or PG/acetate buffer (30:70) were prepared as described above and placed in polymeric containers. The containers were stored at 37° C. for one month in an incubator. The samples were analyzed using RP-HPLC to determine the chemical stability of the aged formulations.

Data set [3] can be described thus: Stability of nafarelin formulations, one month at 37° C., RP-HPLC. Here is the method: as §1
Formulations of 15% (w/w) nafarelin in either PEG 600 or propylene glycol were prepared as described above for leuprolide and placed in polymeric containers.
The containers were stored at 37° C. for one month in an incubator.
The samples were analyzed using RP-HPLC to determine the chemical stability of the aged formulations.

The mark [4] stands for this setting: 40-45% (w/w) in vehicle PEG 600, one month at 37° C.
[5] abbreviates: 40-45% (w/w) in vehicle PG/Acetate Buffer(30:70), one month at 37° C.
Where [6] appears, read: 15% (w/w) in vehicle PEG 600, one month at 37° C.
Setting [7] is: 15% (w/w) in vehicle PG, one month at 37° C.

On to `CC(C)C[C@H](NC(=O)[C@@H](COC(C)(C)C)NC(=O)[C@H](Cc1ccc(O)cc1)NC(=O)[C@H](CO)NC(=O)[C@H](Cc1c[nH]c2ccccc12)NC(=O)[C@H](Cc1cnc[nH]1)NC(=O)[C@@H]1CCC(=O)N1)C(=O)N[C@@H](CCCNC(=N)N)C(=O)N1CCC[C@H]1C(=O)NNC(N)=O` [goserelin], for which, in data set [1], the “effect of adding polar aprotic solvents such as DMSO on gelation of the formulation” value (“effect” for short) is “prevents gelation”. In data set [2] (setting [4]), the “% PURITY” value was found to be 99.3% and the “% CONCENTRATION” value was determined as 23.6%. Moreover, in data set [2] (setting [5]), the “% PURITY” value worked out at 98.2% and the “% CONCENTRATION” value is reported as 49.7%.
Take `CCNC(=O)[C@@H]1CCCN1C(=O)[C@H](CCCNC(=N)N)NC(=O)[C@H](CC(C)C)NC(=O)[C@@H](CC(C)C)NC(=O)[C@H](Cc1ccc(O)cc1)NC(=O)[C@H](CO)NC(=O)[C@H](Cc1c[nH]c2ccccc12)NC(=O)[C@H](Cc1c[nH]cn1)NC(=O)[C@@H]1CCC(=O)N1` [leuprolide]: the “effect” value in data set [1] is recorded as “prevents gelation”.
For `CC(C)C[C@H](NC(=O)[C@@H](Cc1ccc2ccccc2c1)NC(=O)[C@H](Cc1ccc(O)cc1)NC(=O)[C@H](CO)NC(=O)[C@H](Cc1c[nH]c2ccccc12)NC(=O)[C@H](Cc1c[nH]cn1)NC(=O)[C@@H]1CCC(=O)N1)C(=O)N[C@@H](CCCNC(=N)N)C(=O)N1CCC[C@H]1C(=O)NCC(N)=O` [nafarelin], in data set [3] (setting [6]), the “% CONCENTRATION” value is listed as 15.8% and the “% PURITY” value is 99.4%. Moreover, in data set [3] (setting [7]), the “% CONCENTRATION” value is listed as 12.9% and the “% PURITY” value is given as 99.4%.
As for calcitonin, the “effect” value in data set [1] is on record as “prevents gelation”.
